# ChEMBL document CHEMBL2375251, “Anticancer activity of novel hybrid molecules containing 5-benzylidene thiazolidine-2,4-dione” (Eur J Med Chem, 2013)
# Calls of active or inactive are those of the source. The calls are words filed in the database; no cut-off is given here.
# What was measured:
# HL-60 [1] = test: Induction of apoptosis in human HL60 cells assessed as cytochrome c release at 1 uM after 6 hrs by Western blot analysis; assay type: functional, cell-based
# MOLT-3 [2] = test: Induction of apoptosis in human MOLT3 cells assessed as procaspase-9 activation at 1 uM after 6 hrs by Western blot analysis; assay type: functional, cell-based
# U-937 [3] = test: Induction of apoptosis in human U937 cells assessed as appearance of apoptotic bodies at 1 uM after 6 hrs by Hoechst 33258 staining based fluorescence microscopy; assay type: functional, cell-based
# MOLT-3 [4] = test: Induction of apoptosis in human MOLT3 cells assessed as caspase9-mediated LEHD-pNA cleavage at 1 uM after 6 hrs by colorimetric assay; assay type: functional, cell-based
# HL-60 [5] = test: Cytotoxicity against human HL60 cells after 4 hrs by MTT assay; assay type: functional, cell-based
# MOLT-3 [6] = test: Induction of apoptosis in human MOLT3 cells assessed as chromatin hydrolysis at 1 uM after 6 hrs by agarose gel electrophoresis; assay type: functional, cell-based
# MOLT-3 [7] = test: Induction of apoptosis in human MOLT3 cells assessed as caspase 3/7-mediated DEVD-pNA cleavage at 1 uM after 6 hrs by colorimetric assay; assay type: functional, cell-based
# HL-60 [8] = test: Induction of apoptosis in human HL60 cells assessed as procaspase-8 activation at 1 uM after 6 hrs by Western blot analysis; assay type: functional, cell-based
# U-937 [9] = test: Induction of apoptosis in human U937 cells assessed as procaspase-7 activation at 1 uM after 6 hrs by Western blot analysis; assay type: functional, cell-based
# HL-60 [10] = test: Induction of apoptosis in human HL60 cells assessed as procaspase-9 activation at 1 uM after 6 hrs by Western blot analysis; assay type: functional, cell-based
# FM3A = test: Cytotoxicity against mouse FM3A cells after 2 days by Coulter counter analysis; assay type: functional, cell-based; conditions: 48 h
# HL-60 [11] = test: Induction of apoptosis in human HL60 cells assessed as appearance of apoptotic bodies at 1 uM after 6 hrs by Hoechst 33258 staining based fluorescence microscopy; assay type: functional, cell-based
# MOLT-3 [12] = test: Induction of apoptosis in human MOLT3 cells assessed as cytochrome c release at 1 uM after 6 hrs by Western blot analysis; assay type: functional, cell-based
# MOLT-3 [13] = test: Cytotoxicity against human MOLT3 cells after 4 hrs by MTT assay; assay type: functional, cell-based
# HL-60 [14] = test: Induction of apoptosis in human HL60 cells assessed as procaspase-6 activation at 1 uM after 6 hrs by Western blot analysis; assay type: functional, cell-based
# HL-60 [15] = test: Induction of apoptosis in human HL60 cells assessed as procaspase-3 activation at 1 uM after 6 hrs by Western blot analysis; assay type: functional, cell-based
# MOLT-3 [16] = test: Induction of apoptosis in human MOLT3 cells assessed as procaspase-8 activation at 1 uM after 6 hrs by Western blot analysis; assay type: functional, cell-based
# MOLT-3 [17] = test: Induction of apoptosis in human MOLT3 cells assessed as caspase 8-mediated IETD-pNA cleavage at 1 uM after 6 hrs by colorimetric assay; assay type: functional, cell-based
# U-937 [18] = test: Cytotoxicity against human U937 cells after 4 hrs by MTT assay; assay type: functional, cell-based
# U-937 [19] = test: Induction of apoptosis in human U937 cells assessed as procaspase-8 activation at 1 uM after 6 hrs by Western blot analysis; assay type: functional, cell-based
# HeLa = test: Cytotoxicity against human HeLa cells after 4 days by Coulter counter analysis; assay type: functional, cell-based; conditions: 96 h
# U-937 [20] = test: Induction of apoptosis in human U937 cells assessed as procaspase-3 activation at 1 uM after 6 hrs by Western blot analysis; assay type: functional, cell-based
# MOLT-3 [21] = test: Induction of apoptosis in human MOLT3 cells assessed as procaspase-3 activation at 1 uM after 6 hrs by Western blot analysis; assay type: functional, cell-based
# U-937 [22] = test: Induction of apoptosis in human U937 cells assessed as chromatin condensation at 1 uM after 6 hrs by Hoechst 33258 staining based fluorescence microscopy; assay type: functional, cell-based
# HL-60 [23] = test: Induction of apoptosis in human HL60 cells assessed as caspase-3-mediated PARP hydrolysis at 1 uM after 6 hrs by Western blot analysis; assay type: functional, cell-based
# U-937 [24] = test: Induction of apoptosis in human U937 cells assessed as chromatin hydrolysis at 1 uM after 6 hrs by agarose gel electrophoresis; assay type: functional, cell-based
# HL-60 [25] = test: Induction of apoptosis in human HL60 cells assessed as caspase9-mediated LEHD-pNA cleavage at 1 uM after 6 hrs by colorimetric assay; assay type: functional, cell-based
# MOLT-3 [26] = test: Induction of apoptosis in human MOLT3 cells assessed as caspase 3/7-mediated DEVD-pNA cleavage at 1 uM after 6 hrs by colorimetric assay relative to control; assay type: functional
# MOLT-3 [27] = test: Induction of apoptosis in human MOLT3 cells assessed as procaspase-6 activation at 1 uM after 6 hrs by Western blot analysis; assay type: functional, cell-based
# U-937 [28] = test: Induction of apoptosis in human U937 cells assessed as procaspase-6 activation at 1 uM after 6 hrs by Western blot analysis; assay type: functional, cell-based
# HL-60 [29] = test: Induction of apoptosis in human HL60 cells assessed as caspase 3/7-mediated DEVD-pNA cleavage at 1 uM after 6 hrs by colorimetric assay relative to control; assay type: functional
# HL-60 [30] = test: Induction of apoptosis in human HL60 cells assessed as caspase 8-mediated IETD-pNA cleavage at 1 uM after 6 hrs by colorimetric assay; assay type: functional, cell-based
# HL-60 [31] = test: Induction of apoptosis in human HL60 cells assessed as chromatin condensation at 1 uM after 6 hrs by Hoechst 33258 staining based fluorescence microscopy; assay type: functional, cell-based
# L1210 = test: Cytotoxicity against mouse L1210 cells after 2 days by Coulter counter analysis; assay type: functional, cell-based; conditions: L1210, 48 h
# U-937 [32] = test: Induction of apoptosis in human U937 cells assessed as caspase-3-mediated PARP hydrolysis at 1 uM after 6 hrs by Western blot analysis; assay type: functional, cell-based
# MOLT-3 [33] = test: Induction of apoptosis in human MOLT3 cells assessed as procaspase-7 activation at 1 uM after 6 hrs by Western blot analysis; assay type: functional, cell-based
# U-937 [34] = test: Induction of apoptosis in human U937 cells assessed as caspase9-mediated LEHD-pNA cleavage at 1 uM after 6 hrs by colorimetric assay; assay type: functional, cell-based
# CCRF-CEM = test: Cytotoxicity against human CEM cells after 3 days by Coulter counter analysis; assay type: functional, cell-based; conditions: 72 h
# HL-60 [35] = test: Induction of apoptosis in human HL60 cells assessed as chromatin hydrolysis at 1 uM after 6 hrs by agarose gel electrophoresis; assay type: functional, cell-based
# U-937 [36] = test: Induction of apoptosis in human U937 cells assessed as cytochrome c release at 1 uM after 6 hrs by Western blot analysis; assay type: functional, cell-based
# U-937 [37] = test: Induction of apoptosis in human U937 cells assessed as hypodiploid DNA content at 3 uM after 6 hrs by propidium iodide staining-based flow cytometry relative to control; assay type: functional
# HL-60 [38] = test: Induction of apoptosis in human HL60 cells assessed as hypodiploid DNA content at 3 uM after 6 hrs by propidium iodide staining-based flow cytometry relative to control; assay type: functional
# MOLT-3 [39] = test: Induction of apoptosis in human MOLT3 cells assessed as caspase-3-mediated PARP hydrolysis at 1 uM after 6 hrs by Western blot analysis; assay type: functional, cell-based
# U-937 [40] = test: Induction of apoptosis in human U937 cells assessed as caspase 8-mediated IETD-pNA cleavage at 1 uM after 6 hrs by colorimetric assay; assay type: functional, cell-based
# U-937 [41] = test: Induction of apoptosis in human U937 cells assessed as caspase 3/7-mediated DEVD-pNA cleavage at 1 uM after 6 hrs by colorimetric assay relative to control; assay type: functional
# U-937 [42] = test: Induction of apoptosis in human U937 cells assessed as caspase 3/7-mediated DEVD-pNA cleavage at 1 uM after 6 hrs by colorimetric assay; assay type: functional, cell-based
# HL-60 [43] = test: Induction of apoptosis in human HL60 cells assessed as procaspase-7 activation at 1 uM after 6 hrs by Western blot analysis; assay type: functional, cell-based
# U-937 [44] = test: Induction of apoptosis in human U937 cells assessed as procaspase-9 activation at 1 uM after 6 hrs by Western blot analysis; assay type: functional, cell-based
# HL-60 [45] = test: Induction of apoptosis in human HL60 cells assessed as caspase 3/7-mediated DEVD-pNA cleavage at 1 uM after 6 hrs by colorimetric assay; assay type: functional, cell-based
structure (smiles),measurement,setting,value
C=C(Br)C(=O)Nc1cccc(/C=C2\SC(=O)N(Cc3ccc(C(F)(F)F)cc3)C2=O)c1,Activity,HL-60 [1],Active
same,Activity,MOLT-3 [2],Active
same,Activity,U-937 [3],Active
same,Activity,MOLT-3 [4],Active
same,Activity,HL-60 [5],Dose-dependent effect
same,IC50,"HL-60 [5]; HL-60, 4 h",450 nM
same,Activity,MOLT-3 [6],inactive
same,Activity,MOLT-3 [7],Active
same,Activity,HL-60 [8],Active
same,Activity,U-937 [9],Active
same,Activity,HL-60 [10],Active
same,IC50,FM3A,870 nM
same,Activity,HL-60 [11],Active
same,Activity,MOLT-3 [12],Active
same,Activity,MOLT-3 [13],Dose-dependent effect
same,IC50,"MOLT-3 [13]; MOLT-3, 4 h",710 nM
same,Activity,HL-60 [14],Active
same,Activity,HL-60 [15],Active
same,Activity,MOLT-3 [16],Active
same,Activity,MOLT-3 [17],Active
same,Activity,U-937 [18],Dose-dependent effect
same,IC50,"U-937 [18]; U-937, 4 h",500 nM
same,Activity,U-937 [19],Active
same,IC50,HeLa,820 nM
same,Activity,U-937 [20],Active
same,Activity,MOLT-3 [21],Active
same,Activity,U-937 [22],Active
same,Activity,HL-60 [23],Active
same,Activity,U-937 [24],Active
same,Activity,HL-60 [25],Active
same,fold change (FC),MOLT-3 [26],>2
same,Activity,MOLT-3 [27],Active
same,Activity,U-937 [28],Active
same,fold change (FC),HL-60 [29],>5
same,Activity,HL-60 [30],Active
same,Activity,HL-60 [31],Active
same,IC50,L1210,720 nM
same,Activity,U-937 [32],Active
same,Activity,MOLT-3 [33],Active
same,Activity,U-937 [34],Active
same,IC50,CCRF-CEM,920 nM
same,Activity,HL-60 [35],Active
same,Activity,U-937 [36],Active
same,fold change (FC),U-937 [37],16
same,fold change (FC),HL-60 [38],23
same,Activity,MOLT-3 [39],Active
same,Activity,U-937 [40],Active
same,fold change (FC),U-937 [41],>10
same,Activity,U-937 [42],Active
same,Activity,HL-60 [43],Active
same,Activity,U-937 [44],Active
same,Activity,HL-60 [45],Active
